≈ marks a conversion by molar mass, not a printed value. Where two headings read alike, the source gives them in different places.
Columns and labels:
[1] = tested on: WiDr human colorectal cancer; test: In vitro anti-tumor activity against WiDr human colorectal cancer (MTT); type: cell-based; settings: 72 h, MTT, read-out: IC50
Method: (§1) A culture medium containing 500 to 2,000 human cancer cells was put in an amount of 0.1 ml in each well of 96-well plate, and the cells were cultured for 20 hours under a condition of 37° C. and 5% carbon dioxide gas in air. After the culturing, a solution of test compounds of predetermined concentration was added, and then, the cells were cultured for further 72 hours. After the culturing, an MTT (5 mg/ml) solution was added in an amount of 0.01 ml in the respective wells, and the cells were cultured for further 4 hours. The supernatants of the culture medium were removed by suction, and then, 0.1 ml of dimethyl sulfoxide was put in respective well to dissolve the formed formazan, and, moreover, 0.1 ml of dimethyl sulfoxide was added.

C33A human cervix cancer = test: In vitro anti-tumor activity against C-33A human cervix cancer (MTT); type: cell-based; settings: C-33A, 72 h, MTT, read-out: IC50
Method: as §1

HMV2 human melanoma = test: In vitro anti-tumor activity against HMV-2 human melanoma (MTT); type: cell-based; settings: HMV-2, 72 h, MTT, read-out: IC50
Method: as §1

[2] = tested on: KB human nasopharynx cancer; test: In vitro anti-tumor activity against KB human nasopharynx cancer (MTT); type: cell-based; settings: KB, 72 h, MTT, read-out: IC50
Method: as §1

A427 human lung cancer = test: In vitro anti-tumor activity against A-427 human lung cancer (MTT); type: cell-based; settings: A-427, 72 h, MTT, read-out: IC50
Method: as §1

[3] = tested on: colon 26 murine tumor cells; test: Tumor growth inhibition effect on colon 26 murine tumor cells implanted mice; type: in vivo, SLC: CDF1 mice; settings: Mus musculus, Colon 26, 504 h, ip, days 1-9, day 21 or 22, read-out: Tumor growth inhibition rate IR (%); for inhibition in vivo at 3.13 mg/kg: 3.13 mg/kg once a day; for inhibition in vivo at 1.56 mg/kg: 1.56 mg/kg once a day; for inhibition in vivo at 6.25 mg/kg: 6.25 mg/kg once a day
Method: A 2% brei of colon 26 murine tumor cells was intracutaneously implanted each 0.1 ml in the abdominal part of SLC: CDF1 female mice (7 to 9 weeks old, 7 animals per one group). […] The obtained solutions were intraperitoneally (ip) administered each 0.2 ml once a day, from the day (1st day) following the implantation to the 9th day. On the 21st or 22nd day after the implantation, tumor weight was estimated from tumor diameters, and thus, the tumor growth inhibition rate (IR %) of the drug administered group in comparison with the control group was calculated according to the following equation. IR (%)=[1-{(MTW in the treated group)/(MTW in the control group)}]×10 0 MTW: mean tumor weight

[4] = tested on: murine P388 lymphocytic leukemia cells; test: In vitro anti-tumor activity against murine P388 lymphocytic leukemia cells (MTT, 72 h); type: cell-based; settings: Mus musculus; murine P388 cells, 72 h, MTT; read-out: IC50 (50% proliferation inhibitory concentration)
Method: Test compounds were tested for anti-tumor activity according to MTT [3-(4,5-dimethylthiazol-2-yl)-2,5-diphenyltetrazolium bromide] method, using murine P388 lymphocytic leukemia cells. […] The culture medium was centrifuged (4° C., 2,000 rpm for 20 minutes), and thus, the supernatants were removed by suction. Then, 0.1 ml of dimethyl sulfoxide was put in each well to dissolve the formed formazan, and, subsequently, another 0.1 ml of dimethyl sulfoxide was added. The absorbance (OD) of each of the obtained solutions was measured by use of Multiskan Bichromatic (main wavelength 570 nm, sub-wavelength 690 nm). […] IC50 :μg/ml) were calculated by the least squares method.

[5] = tested on: murine P388 lymphocytic leukemia cells; test: Increases in life span of mice implanted with murine P388 lymphocytic leukemia cells; type: in vivo, SLC: BDF1 mice; settings: Mus musculus, P388, ip, 720 h, ip
Method: 1×10^6 murine P388 lymphocytic leukemia cells were intraperitoneally implanted in each of SLC: BDF1 mice (8 to 10 weeks old, female, 7 animals per one group). A test compound (drug) was either dissolved in 0.1 N--NaOH or suspended in 0.4% carboxymethylcellulose solution, and the resultant solution or suspension was diluted with distilled water or 0.4% carboxymethylcellulose solution so as to give predetermined concentrations for administration. The obtained solution was intraperitoneally (ip) administered twice, namely on the day following the implantation (1st day) and the 5th day, each 0.2 ml. The life and death of the mice were observed over a period of 30 days, and the median survival time (hereinafter referred to as MST) was determined for each group, and, thus, the increase in life span (ILS; %) was calculated according to the following equation:
ILS (%)=[{(MST of the test group)/(MST of the control group)}-1]×100
Drug effect was judged in the following manner, according to the criterion of U.S. National Cancer Institute (NCI):
ILS=75% or higher: ++ (remarkably effective);
20 to 74%: + (effective);
19% or lower: - (ineffective)

[6] = tested on: MKN45 human stomach cancer; test: In vitro anti-tumor activity against MKN45 human stomach cancer (MTT); type: cell-based; settings: MKN-45, MKN45, 72 h, MTT, read-out: IC50
Method: as §1

[7] = tested on: AZ521 human stomach cancer; test: In vitro anti-tumor activity against AZ-521 human stomach cancer (MTT); type: cell-based; settings: AZ-521, 72 h, MTT, read-out: IC50
Method: as §1

[8] = NCI criterion, read-out: Evaluation
[9] = days 1 and 5, in suspension, read-out: ILS (%) (in suspension)

| SMILES | IC50 [1] [µg/mL] | IC50 (C33A human cervix cancer) [µg/mL] | IC50 (HMV2 human melanoma) [µg/mL] | IC50 [2] [µg/mL] | IC50 (A427 human lung cancer) [µg/mL] | IC50 [4] [µg/mL] | IC50 [6] [µg/mL] | IC50 [7] [µg/mL] | inhibition in vivo at 3.13 mg/kg [3] [%] | ILS at 3.13 mg/kg [5, 8] [%] | ILS at 12.5 mg/kg [5, 8] [%] | ILS at 3.13 mg/kg [5, 9] [%] | ILS at 12.5 mg/kg [5, 9] [%] | inhibition in vivo at 1.56 mg/kg [3] [%] | ILS at 50 mg/kg [5, 8] [%] | ILS at 50 mg/kg [5, 9] [%] | inhibition in vivo at 0.78 mg/kg ([3]; 0.78 mg/kg once a day) [%] | inhibition in vivo at 6.25 mg/kg [3] [%] | inhibition in vivo at 1.1 mg/kg ([3]; 1.10 mg/kg once a day) [%] |
| --- | --- | --- | --- | --- | --- | --- | --- | --- | --- | --- | --- | --- | --- | --- | --- | --- | --- | --- | --- |
| C[C@@H]1CN(c2ccc3c(=O)c(C(=O)O)cn(-c4nccs4)c3n2)C[C@H]1N (relative stereo) [Compound 7] | 0.314 (≈ 0.845 µM) | 0.105 (≈ 0.283 µM) | 0.139 (≈ 0.374 µM) | 0.111 (≈ 0.299 µM) | 0.0933 (≈ 0.251 µM) | 0.00955 (≈ 0.0257 µM) | 0.112 (≈ 0.302 µM) | 0.0719 (≈ 0.194 µM) | 95 | > 75 | > 75 | 75 | 100 | 61 | > 75 | 188 | – | – | – |
| CN[C@@H]1CN(c2ccc3c(=O)c(C=O)cn(-c4nccs4)c3n2)C[C@H]1OC.Cl (relative stereo) [Compound 11, 3-Formyl-1,4-dihydro-7-(trans-3-methoxy-4-methylamino-1-pyrrolidinyl)-4-oxo-1-(2-thiazolyl)-1,8-naphthyridine hydrochloride] | 0.264 | 0.161 | 0.214 | 0.179 | 0.0749 | 0.0309 | 0.144 | 0.0307 | – | > 75 | > 75 | 88 | 150 | 58 | > 75 | 225 | 50 | – | – |
| C[C@@H]1CN(c2ccc3c(=O)c(C(=O)O)cn(-c4nccs4)c3n2)C[C@@]1(C)N (relative stereo) [Compound 12] | 0.295 (≈ 0.765 µM) | 0.131 (≈ 0.34 µM) | 0.265 (≈ 0.688 µM) | 0.125 (≈ 0.324 µM) | 0.146 (≈ 0.379 µM) | 0.0195 (≈ 0.0506 µM) | 0.164 (≈ 0.425 µM) | 0.101 (≈ 0.262 µM) | 48 | – | > 75 | – | 75 | – | – | – | – | 84 | – |
| C[C@@H]1[C@@H](N)CCN1c1ccc2c(=O)c(C(=O)O)cn(-c3nccs3)c2n1 (relative stereo) [Compound 17] | – | – | – | – | – | – | – | – | – | – | – | – | – | – | > 75 | 150 | – | – | – |
| CN[C@@H]1CN(c2ccc3c(=O)c(C(=O)O)cn(-c4nccs4)c3n2)C[C@H]1OC (single isomer, unassigned) [Compound 1-2, (+)-1,4-Dihydro-7-(trans-3-methoxy-4-methylamino-1-pyrrolidinyl)-4-oxo-1-(2-thiazolyl)-1,8-naphthyridine-3-carboxylic acid] | 0.357 (≈ 0.889 µM) | 0.0828 (≈ 0.206 µM) | 0.114 (≈ 0.284 µM) | 0.0873 (≈ 0.217 µM) | 0.0925 (≈ 0.23 µM) | 0.00641 (≈ 0.016 µM) | 0.155 (≈ 0.386 µM) | 0.0396 (≈ 0.0986 µM) | – | – | – | – | – | – | – | – | – | – | 69 |
| NC1CCN(c2ncc3c(=O)c(C(=O)O)cn(-c4nccs4)c3n2)C1 (centres unmarked) [Compound 14] | – | – | 0.872 (≈ 2.43 µM) | 0.636 (≈ 1.77 µM) | – | 0.0466 (≈ 0.13 µM) | – | 0.31 (≈ 0.865 µM) | 55 | 20 to 74 | > 75 | 63 | 113 | – | > 75 | > 275 | – | 68 | – |

Continued, in another order:

| IC50 [1] [µg/mL] | IC50 (C33A human cervix cancer) [µg/mL] | IC50 (HMV2 human melanoma) [µg/mL] | IC50 [2] [µg/mL] | IC50 (A427 human lung cancer) [µg/mL] | IC50 [4] [µg/mL] | IC50 [6] [µg/mL] | IC50 [7] [µg/mL] | SMILES | inhibition in vivo at 3.13 mg/kg [3] [%] | ILS at 3.13 mg/kg [5, 8] [%] | ILS at 12.5 mg/kg [5, 8] [%] | ILS at 3.13 mg/kg [5, 9] [%] | ILS at 12.5 mg/kg [5, 9] [%] | inhibition in vivo at 1.56 mg/kg [3] [%] | ILS at 50 mg/kg [5, 8] [%] | ILS at 50 mg/kg [5, 9] [%] | inhibition in vivo at 0.78 mg/kg ([3]; 0.78 mg/kg once a day) [%] | inhibition in vivo at 6.25 mg/kg [3] [%] | inhibition in vivo at 1.1 mg/kg ([3]; 1.10 mg/kg once a day) [%] |
| --- | --- | --- | --- | --- | --- | --- | --- | --- | --- | --- | --- | --- | --- | --- | --- | --- | --- | --- | --- |
| 0.273 (≈ 0.68 µM) | 0.143 (≈ 0.356 µM) | 0.197 (≈ 0.491 µM) | 0.147 (≈ 0.366 µM) | 0.158 (≈ 0.394 µM) | 0.02 (≈ 0.0498 µM) | 0.131 (≈ 0.326 µM) | 0.0985 (≈ 0.245 µM) | CN[C@@H]1CN(c2ccc3c(=O)c(C(=O)O)cn(-c4nccs4)c3n2)C[C@@H]1OC (relative stereo) [Compound 1-4] | 61 | 20 to 74 | > 75 | 25 | 100 | – | – | – | – | – | – |
| 0.268 (≈ 0.645 µM) | 0.138 (≈ 0.332 µM) | 0.171 (≈ 0.412 µM) | 0.15 (≈ 0.361 µM) | 0.15 (≈ 0.361 µM) | 0.0252 (≈ 0.0607 µM) | 0.139 (≈ 0.335 µM) | 0.0717 (≈ 0.173 µM) | CCN[C@@H]1CN(c2ccc3c(=O)c(C(=O)O)cn(-c4nccs4)c3n2)C[C@H]1OC (relative stereo) [Compound 13] | – | 20 to 74 | > 75 | 25 | 100 | 41 | > 75 | 213 | – | – | – |
| 0.259 (≈ 0.622 µM) | 0.0854 (≈ 0.205 µM) | 0.119 (≈ 0.286 µM) | 0.0604 (≈ 0.145 µM) | 0.0696 (≈ 0.167 µM) | 0.0157 (≈ 0.0377 µM) | 0.0964 (≈ 0.231 µM) | 0.0288 (≈ 0.0692 µM) | CN[C@@H]1CN(c2cc(N)c3c(=O)c(C(=O)O)cn(-c4nccs4)c3n2)C[C@H]1OC (relative stereo) [Compound 15] | 68 | > 75 | > 75 | 88 | 200 | – | > 75 | 238 | – | – | – |
| 0.322 (≈ 0.768 µM) | 0.132 (≈ 0.315 µM) | 0.181 (≈ 0.432 µM) | 0.126 (≈ 0.3 µM) | 0.145 (≈ 0.346 µM) | 0.0344 (≈ 0.082 µM) | 0.148 (≈ 0.353 µM) | 0.0798 (≈ 0.19 µM) | CN[C@@H]1CN(c2ccc3c(=O)c(C(=O)O)cn(-c4nc(F)cs4)c3n2)C[C@H]1OC (relative stereo) [Compound 16] | 77 | 20 to 74 | > 75 | 38 | 138 | – | > 75 | 238 | – | – | – |

Reference: patent US5817669A, “Compounds, processes for the preparation thereof and anti-tumor agents” (Dainippon Pharmaceutical Co., Ltd., priority 1994, dated 1998)
